Results on 1 molecule are retold here after patent US11318113B2, “Compounds for the treatment of diseases linked to mitochondrial reactive oxygen species (ROS) production” (OP2 DRUGS, priority 2015, dated 2022).

Converted amounts (≈) assume the structure as drawn.

Data set [1] concerns isolated perfused rat heart. Nature of the data set: Global ischaemia/reperfusion of isolated perfused (Langendorff) rat heart. Particulars: 10 μM AOL pretreatment, 30 min ischaemia. As for the experimental part: The consequences of 30 minutes' global ischaemia followed by 120 minutes' reperfusion (FIG. 11) on contractility and tissue viability were studied on isolated perfused rat heart pretreated or not (control vehicle) with 10 μM AOL.
All procedures conformed to the UK Animals (Scientific Procedures) Act 1986 and the Guide for the Care and Use of Laboratory Animals published by the National Institutes of Health (NIH Publication No. 85-23. revised 1996). Male Wistar rats (250-300 g) were anesthetized by 3% isoflurane, heparinized and euthanized by a lethal IP injection of pentobarbital (130 mg/kg). Hearts (˜0.95 g of fresh weight) were rapidly harvested and placed into ice cold Krebs-Henseleit buffer containing (in mmol/L): NaCl 118, NaHCO3 25, KCl 4.8, KH2PO4 1.2, MgSO4 1.2, glucose 11 and CaCl2 1.8; gassed with 95% O2/5% CO2 at 37° C. (pH 7.4). Langendorff heart perfusions were performed (Garlid, K. D. et al., 2006. Am. J. Physiol. Heart Circ. Physiol. 291(1):H152-60) and contractility was assessed by continuous measurement of the rate pressure product (RPP) thanks to a balloon placed in the left ventricle and connected to a pressure transducer. Hearts were perfused in a constant flow mode (12 mL/min). […]

The test system of data set [2] is outer nuclear layer (ONL) of the retina. Nature of the data set: Progressive light-induced retinal degeneration, retina histology. Format: in vivo, rat. Particulars: 6 mg/kg/day, three times a day, 7 days. As for the experimental part: Rats bred under cyclic low-intensity lighting were transferred to cyclic high-intensity lighting for one week and divided into 3 groups (non-treated animals, vehicle-treated animals and AOL-treated animals). Treated animals received injections of vehicle or AOL at a dose of 6 mg/kg/day, three times a day for the 7 days of the transfer (30 minutes before light-ON; at 01.00 pm; at 09.00 pm). After one week, animals were transferred in the dark (D0).
A control group (“untransferred”) was not transferred to cyclic high-intensity lighting but received the same treatment as described above: injections of vehicle or AOL three times a day for 7 days, followed by a transfer in the dark (D0).
Animals were then sacrificed for histological analysis.

A short description of data set [3]: Solubility limit in Kolliphor. Format: physicochemical.

As for `COc1ccc(-c2cc(=S)ss2)cc1` [AOL, 5-(4-methoxyphenyl)-3H-1,2-dithiole-3-thione], the “infarcted tissue rescued (TTC staining)” value in data set [1] (120 min reperfusion) is listed as “about 50%”. The “heart contractility (rate pressure product, RPP) versus control hearts” value in data set [1] (after 2 hours of reperfusion) is “about three times higher”. Moreover, the ONL thickness entry in data set [2] (transferred to cyclic high-intensity lighting) is recorded as “significant increase”; in data set [2] (untransferred control group), “no effect”. In data set [3], this molecule registered a solubility limit of 2800 µM (≈ 673 µg/mL).
